Results from US9556159B2, “Renin inhibitor” (MITSUBISHI TANABE PHARMA CORPORATION, priority 2012, dated 2017).

Molecular target: T1, Recombinant human renin (Homo sapiens, UniProt P00797)
T1 sequence (P00797 67-406): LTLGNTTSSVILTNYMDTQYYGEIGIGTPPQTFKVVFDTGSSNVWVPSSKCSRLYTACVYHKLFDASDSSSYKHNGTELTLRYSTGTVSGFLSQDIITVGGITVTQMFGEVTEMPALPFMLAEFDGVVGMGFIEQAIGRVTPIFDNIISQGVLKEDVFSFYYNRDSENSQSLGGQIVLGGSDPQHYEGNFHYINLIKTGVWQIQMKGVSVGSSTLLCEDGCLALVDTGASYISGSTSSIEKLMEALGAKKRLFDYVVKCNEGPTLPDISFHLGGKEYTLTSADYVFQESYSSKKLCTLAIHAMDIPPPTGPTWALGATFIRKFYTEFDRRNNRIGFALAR
Assay: Inhibitory activity against human renin (fluorogenic peptide substrate)
Assay type: biochemical
Conditions: 37° C. for 1 hour, read-out: IC50

| IC50 | SMILES |
| --- | --- |
| 1.2 nM | COCc1ccc2c([C@@H](C)N(C(=O)[C@H]3CNCCO3)C3CC3)nn(CCCNC(=O)OC)c2n1 [Example 105] |
| 8.3 nM | COc1ccc([C@@H](C)N(C(=O)[C@H]2CNCCO2)C2CC2)cc1CCCNC(C)=O [Example 27] |

Same assay, conditions: 50% inhibitory concentration (IC50) against human renin, 37° C. for 1 hour

| IC50 | SMILES |
| --- | --- |
| 6.6 nM | COC(=O)NCCCn1nc([C@@H](C)N(C(=O)[C@H]2CN[C@H](CC(F)F)CO2)C2CC2)c2ccc(C)nc21 [Example 307] |
| 0.5 nM | COC(=O)NCCCc1cc([C@@H](C)N(C(=O)[C@H]2CNCCO2)C2CC2)cc2cccnc12 [Example 145] |
| 9.5 nM | COC(=O)NCCCc1nc([C@@H](C)N(C(=O)[C@H]2CNCCO2)C2CC2)cnc1N(C)C [Example 442] |
| 1.9 nM | COC(=O)NCCCc1cc(C(C)N(C(=O)[C@H]2CNCCO2)C2CC2)cnc1O[C@H]1CCOC1 (stereo partly drawn) [Example 440] |
| 1.7 nM | COC(=O)NCCCc1cc(C(C)N(C(=O)[C@H]2CNCCO2)C2CC2)sc1-c1cccnc1N (stereo partly drawn) [Example 422] |
| 0.4 nM | COC[C@@H]1CNC[C@H](C(=O)N(C2CC2)[C@H](C)c2cn(CCCNC(=O)OC)c(C3CCCCC3)n2)O1 [Example 290] |
| 1.3 nM | COCCCc1cn(C)c2cnc([C@@H](C)N(C(=O)[C@H]3CNCCO3)C3CC3)cc12 [Example 125] |
| 0.7 nM | COC(=O)NCCCn1cc([C@@H](C)N(C(=O)[C@H]2CNC[C@@H](CF)O2)C2CC2)nc1C1CCOCC1 [Example 404] |
| 1.6 nM | COC[C@H]1CO[C@@H](C(=O)N(C2CC2)[C@H](C)c2cc(CCCNC(=O)OC)n(C3CCOCC3)n2)CN1 [Example 302] |
| 0.8 nM | COC(=O)NCCCc1cc([C@@H](C)N(C(=O)[C@H]2CNCCO2)C2CC2)cc2ncccc12 [Example 149] |
